Test results as given in patent US20080050720A1 (priority 2003, published 2008).

Assays:
[1] = tested on: lawn of the YMR325W reporter strain (S. Cerevisiae strain ABY12); experiment: Solid plate halo assay, growth of reporter strain lawn; type: cell-based; conditions: paper disc; 20 ul of 50 ug/ml Miconazole or 20 ul of 1500 ug/ml Lovastatin; 30° C.
Method: (§1) The assay was designed to mimic assays of natural product producing strains in the presence of ABY12 reporter carrying strains.
(§2) 1. A YMR325W reporter was transformed into wild-type S. Cerevisiae strain ABY12 and grown on a solid Casamino Acids media plate.
(§3) 2. A culture from the solid media plate was used to inoculate a 50 ml liquid culture in Casamino Acids media. The liquid culture was grown overnight at 30° C. to a final OD600=8, and then diluted in Casamino Acids media to an OD600=1, or about 1×10^7 cells per milliliter. Five-hundred microliters of cell culture (about 5×10^6 cells) was spread evenly over the surface of each of two 100 mm solid agar-Casamino-acids-media plates to form a lawn of the YMR325W reporter strain on each plate.
3. Two 6 mm diameter blank paper discs (Becton Dickinson #231039), evenly spaced apart, were placed on top of the agar surface of each plate. On one plate 20 ul of 50 ug/ml of the sterol biosynthesis inhibitor Miconazole was spotted onto one of the two paper discs and 20 ul of 10% DMSO was spotted on the other paper disc as a control. On the other plate 20 ul of 1500 ug/ml Lovastatin was spotted onto one of the two paper discs and 20 ul of 10% DMSO was spotted on the other paper disc as a control. […]
(§4) 4. After a 72 hour incubation the assay plates were imaged in a Molecular Dynamics Fluorimager SI to measure the fluorescence from the GFP reporters.

[2] = tested on: YMR325W reporter; experiment: Solid plate halo assay, fluorescence from the GFP reporter; type: cell-based, S. cerevisiae; conditions: for induction of YMR325W reporter (zone of high fluorescence at the edge of halo): paper disc, 20 ul of 50 ug/ml Miconazole or 20 ul of 1500 ug/ml Lovastatin, 30° C.
Method: as §1, §2, §3
3. Two 6 mm diameter blank paper discs (Becton Dickinson #231039), evenly spaced apart, were placed on top of the agar surface of each plate. On one plate 20 ul of 50 ug/ml of the sterol biosynthesis inhibitor Miconazole was spotted onto one of the two paper discs and 20 ul of 10% DMSO was spotted on the other paper disc as a control. On the other plate 20 ul of 1500 ug/ml Lovastatin was spotted onto one of the two paper discs and 20 ul of 10% DMSO was spotted on the other paper disc as a control. The plates were incubated at 30° C. overnight.
as §4

[3] = tested on: YMR325W gene reporter; experiment: 96-well liquid high-throughput like assay with YMR325W-GFP reporter strain; type: cell-based, S. cerevisiae; conditions: serial 1 to 2 dilutions; initial Lovastatin 30 ug/ml, Miconazole 25 ug/ml, Fenpropimorph 50 ug/ml, Tunicamycin 25 ug/ml; 30° C., about 24 hours
Method: 1. A YMR325W gene reporter was transformed into wild-type S. Cerevisiae strain ABY12 and grown on solid Casamino Acids media plates.
2. A culture from the solid media plate was used to inoculate a 50 ml liquid culture in Casamino Acids media. The liquid culture was grown overnight at 30° C. to an OD600=8, and then was diluted in Casamino Acids media to an OD600=1.
3. Drug-like agents Lovastatin, Miconazole, and Fenpropimorph, sterol biosynthesis inhibitors that target different molecular steps in the sterol biosynthesis pathway, and UDP-N-acetyl-glucosamine-1-P transferase (GPT) inhibitor Tunicamycin, a negative control, were used in the assay. Each of the four drugs was added to individual wells (one drug per well) in the second column of a 96-well assay plate and serially diluted (1 to 2) into Casamino Acids media plus 2% DMSO in columns 3-12. The initial concentrations of the drugs were as follows: Lovastatin: 30 ug/ml, Miconazole: 25 ug/ml, Fenpropimorph: 50 ug/ml, and Tunicamycin: 25 ug/ml. The first column of the plate was used as a “no drug” control, containing only Casamino Acids media plus 2% DMSO. Each well contained a final volume of 100 ul of media and/or media plus drug.
4. […]
5. After the 24 hour incubation the 96-well assay plate was imaged in a Molecular Dynamics Fluorimager SI to measure the fluorescence from the YMR325W-GFP reporter.

Molecule	growth inhibition of the lawn (halo of no growth) [1]	size of zone of fluorescence, Lovastatin compared with Miconazole ([2]; 20 ul of 1500 ug/ml Lovastatin versus 20 ul of 50 ug/ml Miconazole)	induction of YMR325W reporter (zone of high fluorescence at the edge of halo) [2]	fluorescence from the YMR325W-GFP reporter [3]
CC[C@H](C)C(=O)O[C@H]1C[C@@H](C)C=C2C=C[C@H](C)[C@H](CC[C@@H]3C[C@@H](O)CC(=O)O3)[C@H]21 [Lovastatin]	inhibited the growth	much larger zone of fluorescence	significantly induced	
Clc1ccc(COC(Cn2ccnc2)c2ccc(Cl)cc2Cl)c(Cl)c1 (stereo not drawn) [Miconazole]	inhibited the growth		significantly induced	
Tunicamycin				No increase in fluorescence
